Literature values as cited in patent publication US20160338951A1 (Gavis Pharmaceuticals, priority 2015, published 2016).

Settings: olopatadine by itself, water pH about 7.0, room temperature

## CN(C)CC/C=C1/c2ccccc2COc2ccc(CC(=O)O)cc21 [olopatadine, 11-[(Z)-3(Dimethylamino)propylidene]-6-11dihydrodibenz [b,e] oxepin-2-acetic acid]
  soluble in water up to a concentration: about 0.18 w/v %
